Results taken from patent US20240182508A1, “AMPHIPATHIC COMPOUND, PREPARATION METHOD THEREFOR, AND SURFACTANT COMPOSITION COMPRISING SAME” (priority 2022, published 2024).

Key:
[1] = CMC (critical micelle concentration) from surface tension by the stalagmometric method; assay type: physicochemical; conditions: graph of surface tension versus sample concentration
Experimental: The surface tension values of steviol bisglycoside (rebaudioside A) and steviol monoglycoside-acid, ester, and amide obtained in Examples 1, 4, and 5 were measured and compared at various concentrations using the stalagmometric method. In addition, through a graph of surface tension versus sample concentration, CMC was measured to be 5.14 mM (rebaudioside A), 1.1 mM (Example 1, steviolbioside), 0.15 mM (Example 4, rebaudioside B methyl ester), and 0.5 mM (Example 5, rebaudioside B n-hexylamide).

[2] = Foaming properties (foam maintained on standing, measuring cylinder); assay type: physicochemical; conditions: 10 mg in 5 ml distilled water, shaken 10 seconds
Experimental: The foaming properties of steviol monoglycoside-ester obtained in Example 4 were confirmed. 5 ml of distilled water and 10 mg of steviol monoglycoside-ester obtained in Example 4 were mixed in a measuring cylinder to form micelles, then shaken for 10 seconds to generate foam, then allowed to stand at room temperature to compare the amount of foam.
Thereby, it was confirmed that about 50% of the foam was maintained after 15 minutes and about 30% of the foam was maintained after 30 minutes, based on the height of the foam.

CMC [1] | foam maintained, based on the height of the foam ([2]; after 15 minutes at room temperature) | foam maintained, based on the height of the foam ([2]; after 30 minutes at room temperature) | SMILES
0.5 mM |  |  | C=C1C[C@@]23CC[C@H]4[C@@](C)(CCC[C@@]4(C)C(=O)NCCCCCC)[C@@H]2CC[C@]1(O[C@@H]1O[C@H](CO)[C@@H](O)[C@H](O[C@@H]2O[C@H](CO)[C@@H](O)[C@H](O)[C@H]2O)[C@H]1O[C@@H]1O[C@H](CO)[C@@H](O)[C@H](O)[C@H]1O)C3 [Example 5, rebaudioside B n-hexylamide]
5.14 mM |  |  | C=C1C[C@@]23CC[C@H]4[C@@](C)(CCC[C@@]4(C)C(=O)O[C@@H]4O[C@H](CO)[C@@H](O)[C@H](O)[C@H]4O)[C@@H]2CC[C@]1(O[C@@H]1O[C@H](CO)[C@@H](O)[C@H](O[C@@H]2O[C@H](CO)[C@@H](O)[C@H](O)[C@H]2O)[C@H]1O[C@@H]1O[C@H](CO)[C@@H](O)[C@H](O)[C@H]1O)C3 [rebaudioside A, reference compound]
0.15 mM | about 50% | about 30% | C=C1C[C@@]23CC[C@H]4[C@@](C)(CCC[C@@]4(C)C(=O)OC)[C@@H]2CC[C@]1(O[C@@H]1O[C@H](CO)[C@@H](O)[C@H](O[C@@H]2O[C@H](CO)[C@@H](O)[C@H](O)[C@H]2O)[C@H]1O[C@@H]1O[C@H](CO)[C@@H](O)[C@H](O)[C@H]1O)C3 [Example 4, rebaudioside B methyl ester]

SMILES | CMC [1] | foam maintained, based on the height of the foam ([2]; after 15 minutes at room temperature) | foam maintained, based on the height of the foam ([2]; after 30 minutes at room temperature)
C=C1C[C@@]23CC[C@H]4[C@@](C)(CCC[C@@]4(C)C(=O)O)[C@@H]2CC[C@]1(O[C@@H]1O[C@H](CO)[C@@H](O)[C@H](O)[C@H]1O[C@@H]1O[C@H](CO)[C@@H](O)[C@H](O)[C@H]1O)C3 [Example 1, steviolbioside] | 1.1 mM |  | 
